Reference: a melting point compilation (Tetko et al.)

melting point	SMILES
134 to 136 °C	Nc1cnccc1-n1ccnc1
108 to 110 °C	CC(C)CN1CCCC(C(=O)O)C1 (stereo not drawn)
170 to 172 °C	NCCNS(=O)(=O)c1cc(Br)ccc1Br
269 to 271 °C	N#CCSc1ccc(C(=O)O)cc1
118 to 120 °C	Cc1ccc(-n2nc(C)cc2N)cc1
79 to 81 °C	O=C(O)CCCn1ccc2cc(Cl)ccc21
209 to 211 °C	Cn1nc(-c2ccncc2)cc1O
156 to 158 °C	CC(C)n1[nH]c(-c2ccc(F)cc2)cc1=O
235 to 237 °C	CCCNS(=O)(=O)c1ccc(/C=C/C(=O)O)cc1
139 to 141 °C	CN1C(=O)CC(C(=O)O)C1c1cccs1 (stereo not drawn)
127 to 129 °C	O=C(O)C1CCN(S(=O)(=O)c2ccccc2C(F)(F)F)CC1
119 to 121 °C	CCN(CC)S(=O)(=O)c1ccc(NC)c(N)c1
124 to 126 °C	S=C(c1cn(-c2ccccc2)nc1-c1ccccc1)N1CCCCC1
141 to 143 °C	N#CC=CS(=O)(=O)c1ccc(Cl)cc1
180 to 182 °C	Cn1c(=O)oc(=O)c2cc([N+](=O)[O-])ccc21
147 to 149 °C	CC(C)NS(=O)(=O)c1ccc(Cl)c(C(=O)O)c1
174 to 176 °C	CN(c1ccc(F)cc1)S(=O)(=O)c1ccc(Cl)c(C(=O)O)c1
185 to 187 °C	O=C(O)CCNC(=O)C12CC3CC(CC(C3)C1)C2
80 to 82 °C	Cc1ccc([N+](=O)[O-])c(C)c1N
77 to 79 °C	Cn1ccnc1-c1cc(Cl)ccn1
127 to 129 °C	O=S(=O)(Cl)c1ccc2c(Cl)ccc(Cl)c2c1
194 to 196 °C	NNc1ccc([N+](=O)[O-])cn1
241 to 243 °C	Cc1nnc(-c2cccc(C(=O)O)c2)o1

melting point	SMILES
248 to 252 °C	Cc1c(C(=O)O)sc2nc[nH]c(=O)c12
144 to 146 °C	O=C(CCc1ccccc1)NC1CCN(C(=O)CCl)CC1
189 to 191 °C	O=C(O)c1c[nH]c2nccc(Cl)c12
87 to 89 °C	Cc1cc(OC(C)C(=O)O)ccc1Cl (stereo not drawn)
174 to 176 °C	OCc1c(Cl)nc2sccn12
124 to 126 °C	O=C(O)[C@@H]1C[C@H]1c1cccnc1 (relative stereo)
99 to 101 °C	Oc1cccc(CNCC2CC2)c1
65 to 67 °C	Cc1ccccc1-n1c(C)cc(C(=O)CCl)c1C
143 to 145 °C	CCc1nc(N)nc(SC)n1
103 to 105 °C	N#Cc1ccc(NCCN)nc1
52 to 54 °C	COc1ccc(C(=O)CC(C)=O)cc1
74 to 76 °C	O=C(c1ccc(Cl)c(Cl)c1)N1CCNCC1
39 to 41 °C	COc1ccc(CCC2CCCCN2)cc1OC (stereo not drawn)
95 to 97 °C	O=Cc1coc2ccc(F)cc2c1=O
153 to 155 °C	CN(C)S(=O)(=O)c1ccc(S(=O)(=O)Cl)c([N+](=O)[O-])c1
80 to 82 °C	CCOC(=O)C1CCCNC1=O (stereo not drawn)
117 to 119 °C	Cc1ccc(CNC(=O)CCl)cc1
168 to 170 °C	CC(C)NC(=O)NCc1ccc(C(=O)O)cc1
190 to 192 °C	O=C1Cc2ccccc2C(=O)N1
184 to 186 °C	Cc1cc(NC(=O)C2CC2)sc1C(=O)O
99 to 101 °C	CC(C)(C)OC(=O)NC1CCCC1CN (stereo not drawn)
127 to 129 °C	CC(=O)N1CCCc2cc(S(=O)(=O)Cl)ccc21
225 to 227 °C	O=C(O)c1ccc(Cl)c(S(=O)(=O)Nc2ccc(Br)cc2)c1

melting point	SMILES
262 to 264 °C	Cc1nc2cc(F)ccc2cc1C(=O)O
99 to 101 °C	CC1=CC(=O)N(C2CCCCC2)C1=O
212 to 214 °C	Fc1ccc(-c2nnc(S)n2CCN2CCOCC2)cc1
170 to 172 °C	O=C(O)c1cccc(S(=O)(=O)CC(F)F)c1
36 to 38 °C	OC(CC1CCCCCN1)c1ccccc1 (stereo not drawn)
36 to 39 °C	CCNC(=O)NC1CCC(O)CC1 (stereo not drawn)
235 to 237 °C	CCCn1c(=O)[nH]c(=O)c2cc(C(=O)O)cnc21
276 to 278 °C	O=c1[nH]c(Cl)nc2c1cnn2-c1ccccc1
153 to 155 °C	CNC(C(N)=O)c1cccc(F)c1 (stereo not drawn)
216 to 218 °C	N#Cc1c(N)nc2n1CCS2
89 to 91 °C	O=C(O)CC(=O)c1ccc(O)cc1
109 to 111 °C	COCc1nnc(NN)s1
94 to 96 °C	CCN(CC)CC(=O)Nc1ccc(C(F)(F)F)cc1N
204 to 206 °C	CCOc1cc(C(=O)O)cc(Cl)c1O
141 to 150 °C	COC(=O)C(=O)CC(=O)c1ccc(OC)c(OC)c1
89 to 91 °C	O=C(O)C1CC1c1c(F)cccc1F (stereo not drawn)
209 to 211 °C	CN(C)c1cccc(-c2nnc(S)n2N)c1
132 to 134 °C	Nc1ccc(NC(=O)N2CCCCCC2)cc1
51 to 53 °C	CC(O)CS(C)(=O)=O (stereo not drawn)
75 to 77 °C	CCN(CC)S(=O)(=O)c1ccc(N2CCCCC2)c(N)c1
121 to 123 °C	Nc1ccc(F)c(NC(=O)C2CC2)c1
246 to 248 °C	O=C(O)CN1C(=O)Cc2ccccc2C1=O
219 to 221 °C	COc1ccc(C(=O)O)cc1OCc1ccccn1

melting point	SMILES
138 to 140 °C	CN(C)c1ccc(N2C(=O)CSC2=S)cc1
62 to 64 °C	COC(=O)c1oc(Br)cc1C
124 to 126 °C	O=C(O)CSCc1coc(-c2ccccc2)n1
133 to 135 °C	O=C(O)CCNC(=O)c1ccc(F)cc1
181 to 183 °C	Cc1n[nH]c(C)c1C(C)C(=O)O (stereo not drawn)
54 to 55 °C	O=S1(=O)C=CC(Br)C1 (stereo not drawn)
183 to 185 °C	CCN(Cc1ccccc1)c1ccc(C(=O)O)cc1
163 to 165 °C	COC(=O)c1cc([N+](=O)[O-])ccc1N
206 to 208 °C	Nc1nc(Cl)c(Cl)c(N)c1Cl
234 to 236 °C	Cc1cc(C)c(C(=O)O)c(=O)[nH]1
161 to 163 °C	N#CCC1C(=O)Nc2ccccc21 (stereo not drawn)
55 to 57 °C	Nc1ccc(C(=O)OC2CCCC2)cc1
195 to 197 °C	Cn1cc(Br)c2cc[nH]c(=O)c21
40 to 42 °C	NC(CCc1ccccc1)=NO
209 to 211 °C	O=C(O)C1=Cc2cc(F)ccc2OC1
146 to 148 °C	Cc1nn(-c2ccccc2)c(C(F)(F)F)c1C(=O)O
173 to 175 °C	NS(=O)(=O)c1ncccn1
214 to 216 °C	Nn1cnc2sccc2c1=O
221 to 223 °C	O=C(O)c1cc2c(cc1[N+](=O)[O-])OCCO2
162 to 164 °C	CN(c1cccc(Cl)c1)S(=O)(=O)c1cccc(C(=O)O)c1
231 to 233 °C	Cn1cc(C(=O)O)c(-c2ccc(F)cc2F)n1
142 to 144 °C	Cc1ccc(-c2noc(CCC(=O)O)n2)cc1F
89 to 91 °C	Cc1nc[nH]n1

melting point	SMILES
55 to 57 °C	CCOC(=O)CCOc1ccc(C(C)=O)cc1
47 to 49 °C	CC(C(=O)O)c1ccccc1F (stereo not drawn)
117 to 119 °C	COC(=O)c1cccc(Oc2ccnc(Cl)n2)c1
158 to 160 °C	Cc1ccc(C(=O)O)cc1OCc1csc(Br)c1
136 to 138 °C	Cc1nnc(-c2cccc(N)c2)o1
142 to 144 °C	N#Cc1ccc(CNC(=O)CCl)cc1
152 to 154 °C	O=C(NC1CCOCC1)c1ccc(Cl)nn1
157 to 159 °C	O=C(O)C1CCCN(S(=O)(=O)c2ccc(Br)s2)C1 (stereo not drawn)
194 to 196 °C	Nc1nnc(-c2ccc(Br)cc2F)s1
104 to 106 °C	CCn1cc(C=O)c2ccccc21
147 to 149 °C	Cc1ccc(S(=O)(=O)Cl)c(C)c1C(=O)O
219 to 221 °C	Cc1nn(C)c2c1NC(=O)CO2
153 to 155 °C	O=C(O)c1ccccc1Nc1ccc(OC(F)F)cc1
124 to 126 °C	Nc1ccc(NC(=O)c2ccccc2F)cc1C(F)(F)F
79 to 81 °C	Nc1ccccc1CN1CCC(CO)CC1
231 to 233 °C	O=C(O)c1cccc(N2C(=O)C=CC2=O)c1
121 to 123 °C	CN(C)S(=O)(=O)CCC(=O)O
169 to 171 °C	CC(C)(C)OC(=O)NN1CC(C(=O)O)CC1=O (stereo not drawn)
198 to 200 °C	CN(C)c1ccc(C(=O)O)cc1[N+](=O)[O-]
173 to 175 °C	O=C(O)CCc1ccc(S(=O)(=O)NC2CC2)cc1
166 to 168 °C	CC(C)Oc1ccc(C(N)=O)cc1
199 to 201 °C	O=c1ccc(-c2ccc3c(c2)OCCCO3)n[nH]1
66 to 68 °C	Cc1cc(N)n(C(C)(C)C)n1

melting point	SMILES
167 to 169 °C	O=C(O)c1ccccc1NC(=O)C(F)(F)F
97 to 99 °C	CC1(C)NC(=O)N(CCBr)C1=O
207 to 209 °C	NS(=O)(=O)c1cc(F)cc(C(=O)O)c1Br
176 to 178 °C	O=Cc1c[nH]c2cc(F)ccc12
268 to 270 °C	Cc1c(O)ccc2c(CCl)cc(=O)oc12
83 to 85 °C	Nc1ncc(Cc2ccc(Cl)c(Cl)c2)s1
75 to 77 °C	O=C(O)c1cccc(OC2CCCCC2)c1
278 to 280 °C	O=c1ccc2cc(S(=O)(=O)Cl)ccc2[nH]1
222 to 224 °C	COC(=O)c1ccc(O)nc1C
130 to 132 °C	CN(C)C(=O)c1ccc(Cl)c(S(N)(=O)=O)c1
164 to 166 °C	CC(=O)Nc1cc2c(cc1C)OCO2
94 to 96 °C	CC(CC(=O)O)NC(=O)OC(C)(C)C (stereo not drawn)
149 to 151 °C	CCCOc1ccc(C=CC(=O)O)cc1OCC
51 to 53 °C	Cn1ccnc1C(N)c1ccccc1 (stereo not drawn)
269 to 271 °C	Cc1nnc(-c2ccc(C(=O)O)cc2)n1C
121 to 123 °C	O=S(=O)(Cl)C12CC3CC(CC(C3)C1)C2
165 to 167 °C	CN1CCC(Nc2ccc3cn[nH]c3c2)CC1
204 to 206 °C	Cc1cc2ncn(C(C)C(N)=S)c2cc1C (stereo not drawn)
147 to 149 °C	O=C(O)C1CCCN1C(=O)Cc1ccccc1 (stereo not drawn)
145 to 147 °C	Oc1ccnc2c(OC(F)(F)F)cccc12

SMILES	melting point
O=C(O)c1cn(Cc2ccccc2)nc1-c1ccccc1	189 to 191 °C
Cn1cc(N2CCNCC2)cn1	68 to 70 °C
CC(C)(C)c1nnc(CCl)o1	42 to 44 °C
CC(N)Cc1cccc(O)c1 (stereo not drawn)	45 to 47 °C
NCC(O)c1ccc(F)c(F)c1 (stereo not drawn)	53 to 55 °C
CN1CCN(c2ncc(C=O)cn2)CC1	90 to 92 °C
COc1ccc2c(c1)c(C(=O)O)c(C)n2C1CCCC1	174 to 176 °C
Cc1nc(N2CCNCC2)sc1C	72 to 74 °C
